Results reported in the NIST ThermoML archive (doi:10.1016/j.jct.2012.03.003).
± gives the expanded uncertainty stated by the source.

Experiment: xn = mol fraction of the nth substance listed
Conditions: Liquid, Vibrating tube method

COc1cc2c(cc1O)CC1c3c(cc(O)c(OC)c3-2)CCN1C (stereo not given) [boldine] + CCCO
Conditions	mass density [kg/m3]
352.94 K, 17000 kPa, x1 = 0.0142	793.21 ± 0.69
352.94 K, 18000 kPa, x1 = 0.0018	773.13 ± 0.95
352.94 K, 18000 kPa, x1 = 0.0112	789.5 ± 0.76
352.94 K, 18000 kPa, x1 = 0.0142	794.1 ± 0.69
352.94 K, 19000 kPa, x1 = 0.0018	774.01 ± 0.96
352.94 K, 19000 kPa, x1 = 0.0112	790.38 ± 0.76
352.94 K, 19000 kPa, x1 = 0.0142	794.97 ± 0.69
352.94 K, 20000 kPa, x1 = 0.0018	774.9 ± 0.96
352.94 K, 20000 kPa, x1 = 0.0112	791.19 ± 0.77
352.94 K, 20000 kPa, x1 = 0.0142	795.82 ± 0.7
352.95 K, 1000 kPa, x1 = 0.0046	762.42 ± 0.71
352.95 K, 1000 kPa, x1 = 0.0077	766.39 ± 0.67
352.95 K, 2000 kPa, x1 = 0.0046	763.47 ± 0.71
352.95 K, 2000 kPa, x1 = 0.0077	767.42 ± 0.67
352.95 K, 3000 kPa, x1 = 0.0046	764.53 ± 0.71
352.95 K, 3000 kPa, x1 = 0.0077	768.43 ± 0.68
352.95 K, 4000 kPa, x1 = 0.0046	765.57 ± 0.71
352.95 K, 4000 kPa, x1 = 0.0077	769.48 ± 0.67
352.95 K, 5000 kPa, x1 = 0.0046	766.6 ± 0.72
352.95 K, 5000 kPa, x1 = 0.0077	770.53 ± 0.68
352.95 K, 6000 kPa, x1 = 0.0046	767.63 ± 0.72
352.95 K, 6000 kPa, x1 = 0.0077	771.55 ± 0.68
352.95 K, 7000 kPa, x1 = 0.0046	768.64 ± 0.72
352.95 K, 7000 kPa, x1 = 0.0077	772.55 ± 0.68
352.95 K, 8000 kPa, x1 = 0.0046	769.68 ± 0.72
352.95 K, 8000 kPa, x1 = 0.0077	773.58 ± 0.68
352.95 K, 9000 kPa, x1 = 0.0046	770.67 ± 0.73
352.95 K, 9000 kPa, x1 = 0.0077	774.57 ± 0.69
352.95 K, 10000 kPa, x1 = 0.0046	771.67 ± 0.73
352.95 K, 10000 kPa, x1 = 0.0077	775.56 ± 0.69
352.95 K, 11000 kPa, x1 = 0.0046	772.65 ± 0.73
352.95 K, 11000 kPa, x1 = 0.0077	776.53 ± 0.69
352.95 K, 12000 kPa, x1 = 0.0046	773.64 ± 0.73
352.95 K, 12000 kPa, x1 = 0.0077	777.51 ± 0.7
352.95 K, 13000 kPa, x1 = 0.0046	774.6 ± 0.74
352.95 K, 13000 kPa, x1 = 0.0077	778.48 ± 0.7
352.95 K, 14000 kPa, x1 = 0.0046	775.56 ± 0.74
352.95 K, 14000 kPa, x1 = 0.0077	779.42 ± 0.7
352.95 K, 15000 kPa, x1 = 0.0046	776.52 ± 0.74
352.95 K, 15000 kPa, x1 = 0.0077	780.35 ± 0.71
352.95 K, 16000 kPa, x1 = 0.0046	777.42 ± 0.75
352.95 K, 16000 kPa, x1 = 0.0077	781.26 ± 0.71
352.95 K, 17000 kPa, x1 = 0.0046	778.33 ± 0.75
352.95 K, 17000 kPa, x1 = 0.0077	782.19 ± 0.71
352.95 K, 18000 kPa, x1 = 0.0046	779.23 ± 0.76
352.95 K, 18000 kPa, x1 = 0.0077	783.07 ± 0.72
352.95 K, 19000 kPa, x1 = 0.0046	780.13 ± 0.76
352.95 K, 19000 kPa, x1 = 0.0077	783.97 ± 0.72
352.95 K, 20000 kPa, x1 = 0.0046	780.98 ± 0.77
352.95 K, 20000 kPa, x1 = 0.0077	784.83 ± 0.72
362.91 K, 1000 kPa, x1 = 0.0142	768.06 ± 0.63
362.91 K, 2000 kPa, x1 = 0.0142	769.19 ± 0.63
362.91 K, 3000 kPa, x1 = 0.0142	770.27 ± 0.64
362.91 K, 4000 kPa, x1 = 0.0142	771.41 ± 0.64
362.91 K, 5000 kPa, x1 = 0.0142	772.43 ± 0.64
362.91 K, 6000 kPa, x1 = 0.0142	773.54 ± 0.64
362.91 K, 7000 kPa, x1 = 0.0142	774.62 ± 0.65
362.91 K, 8000 kPa, x1 = 0.0142	775.73 ± 0.65
362.91 K, 9000 kPa, x1 = 0.0142	776.73 ± 0.63
362.91 K, 10000 kPa, x1 = 0.0142	777.77 ± 0.66
362.91 K, 11000 kPa, x1 = 0.0142	778.78 ± 0.66
362.91 K, 12000 kPa, x1 = 0.0142	779.82 ± 0.67
362.91 K, 13000 kPa, x1 = 0.0142	780.81 ± 0.67
362.91 K, 14000 kPa, x1 = 0.0142	781.79 ± 0.67
362.91 K, 15000 kPa, x1 = 0.0142	782.77 ± 0.68
362.91 K, 16000 kPa, x1 = 0.0142	783.72 ± 0.68
362.91 K, 17000 kPa, x1 = 0.0142	784.68 ± 0.69
362.91 K, 18000 kPa, x1 = 0.0142	785.6 ± 0.69
362.91 K, 19000 kPa, x1 = 0.0142	786.52 ± 0.69
362.91 K, 20000 kPa, x1 = 0.0142	787.4 ± 0.7
362.92 K, 1000 kPa, x1 = 0.0046	752.84 ± 0.71
362.92 K, 1000 kPa, x1 = 0.0077	756.81 ± 0.67
362.92 K, 2000 kPa, x1 = 0.0046	753.97 ± 0.71
362.92 K, 2000 kPa, x1 = 0.0077	757.93 ± 0.68
362.92 K, 3000 kPa, x1 = 0.0046	755.11 ± 0.71
362.92 K, 3000 kPa, x1 = 0.0077	759.06 ± 0.68
362.92 K, 4000 kPa, x1 = 0.0046	756.24 ± 0.71
362.92 K, 4000 kPa, x1 = 0.0077	760.16 ± 0.68
362.92 K, 5000 kPa, x1 = 0.0046	757.34 ± 0.72
362.92 K, 5000 kPa, x1 = 0.0077	761.28 ± 0.68
362.92 K, 6000 kPa, x1 = 0.0046	758.46 ± 0.72
362.92 K, 6000 kPa, x1 = 0.0077	762.37 ± 0.69
362.92 K, 7000 kPa, x1 = 0.0046	759.55 ± 0.72
362.92 K, 7000 kPa, x1 = 0.0077	763.46 ± 0.69
362.92 K, 8000 kPa, x1 = 0.0046	760.63 ± 0.72
362.92 K, 8000 kPa, x1 = 0.0077	764.54 ± 0.69
362.92 K, 9000 kPa, x1 = 0.0046	761.7 ± 0.73
362.92 K, 9000 kPa, x1 = 0.0077	765.61 ± 0.71
362.92 K, 10000 kPa, x1 = 0.0046	762.78 ± 0.73
362.92 K, 10000 kPa, x1 = 0.0077	766.65 ± 0.7
362.92 K, 11000 kPa, x1 = 0.0046	763.79 ± 0.73
362.92 K, 11000 kPa, x1 = 0.0077	767.68 ± 0.7
362.92 K, 12000 kPa, x1 = 0.0046	764.85 ± 0.74
362.92 K, 12000 kPa, x1 = 0.0077	768.72 ± 0.7
362.92 K, 13000 kPa, x1 = 0.0046	765.87 ± 0.74
362.92 K, 13000 kPa, x1 = 0.0077	769.74 ± 0.71
362.92 K, 14000 kPa, x1 = 0.0046	766.88 ± 0.74
362.92 K, 14000 kPa, x1 = 0.0077	770.74 ± 0.71
362.92 K, 15000 kPa, x1 = 0.0046	767.86 ± 0.75
362.92 K, 15000 kPa, x1 = 0.0077	771.74 ± 0.72
362.92 K, 16000 kPa, x1 = 0.0046	768.85 ± 0.75
362.92 K, 16000 kPa, x1 = 0.0077	772.72 ± 0.72
362.92 K, 17000 kPa, x1 = 0.0046	769.81 ± 0.75
362.92 K, 17000 kPa, x1 = 0.0077	773.68 ± 0.72
362.92 K, 18000 kPa, x1 = 0.0046	770.76 ± 0.76
362.92 K, 18000 kPa, x1 = 0.0077	774.6 ± 0.73
362.92 K, 19000 kPa, x1 = 0.0046	771.7 ± 0.76
362.92 K, 19000 kPa, x1 = 0.0077	775.55 ± 0.73
362.92 K, 20000 kPa, x1 = 0.0046	772.56 ± 0.77
362.92 K, 20000 kPa, x1 = 0.0077	776.45 ± 0.74
362.93 K, 1000 kPa, x1 = 0.0112	763.51 ± 0.72
362.93 K, 2000 kPa, x1 = 0.0112	764.63 ± 0.72
362.93 K, 3000 kPa, x1 = 0.0112	765.74 ± 0.72
362.93 K, 4000 kPa, x1 = 0.0112	766.83 ± 0.73
362.93 K, 5000 kPa, x1 = 0.0112	767.93 ± 0.72
362.93 K, 6000 kPa, x1 = 0.0112	769 ± 0.73
362.93 K, 7000 kPa, x1 = 0.0112	770.08 ± 0.73
362.93 K, 8000 kPa, x1 = 0.0112	771.14 ± 0.74
362.93 K, 9000 kPa, x1 = 0.0112	772.39 ± 0.74
362.93 K, 10000 kPa, x1 = 0.0112	773.24 ± 0.74
362.93 K, 11000 kPa, x1 = 0.0112	774.29 ± 0.74
362.93 K, 12000 kPa, x1 = 0.0112	775.28 ± 0.75
362.93 K, 13000 kPa, x1 = 0.0112	776.29 ± 0.75
362.93 K, 14000 kPa, x1 = 0.0112	777.28 ± 0.75
362.93 K, 15000 kPa, x1 = 0.0112	778.25 ± 0.75
362.93 K, 16000 kPa, x1 = 0.0112	779.21 ± 0.76
362.93 K, 17000 kPa, x1 = 0.0112	780.16 ± 0.76
362.93 K, 18000 kPa, x1 = 0.0112	781.11 ± 0.76
362.93 K, 19000 kPa, x1 = 0.0112	782.03 ± 0.77
362.93 K, 20000 kPa, x1 = 0.0112	782.93 ± 0.77
362.94 K, 1000 kPa, x1 = 0.0018	746.61 ± 0.91
362.94 K, 2000 kPa, x1 = 0.0018	747.75 ± 0.91
362.94 K, 3000 kPa, x1 = 0.0018	748.91 ± 0.91
362.94 K, 4000 kPa, x1 = 0.0018	750.05 ± 0.91
362.94 K, 5000 kPa, x1 = 0.0018	751.17 ± 0.91
362.94 K, 6000 kPa, x1 = 0.0018	752.28 ± 0.91
362.94 K, 7000 kPa, x1 = 0.0018	753.38 ± 0.91
362.94 K, 8000 kPa, x1 = 0.0018	754.49 ± 0.92
362.94 K, 9000 kPa, x1 = 0.0018	755.54 ± 0.92
362.94 K, 10000 kPa, x1 = 0.0018	756.62 ± 0.92
362.94 K, 11000 kPa, x1 = 0.0018	757.69 ± 0.92
362.94 K, 12000 kPa, x1 = 0.0018	758.72 ± 0.93
362.94 K, 13000 kPa, x1 = 0.0018	759.77 ± 0.93
362.94 K, 14000 kPa, x1 = 0.0018	760.8 ± 0.93
362.94 K, 15000 kPa, x1 = 0.0018	761.77 ± 0.93
362.94 K, 16000 kPa, x1 = 0.0018	762.79 ± 0.93
362.94 K, 17000 kPa, x1 = 0.0018	763.76 ± 0.94
362.94 K, 18000 kPa, x1 = 0.0018	764.68 ± 0.94
362.94 K, 19000 kPa, x1 = 0.0018	765.63 ± 0.95
362.94 K, 20000 kPa, x1 = 0.0018	766.58 ± 0.94
